Measured values reported in patent US9474749B2 (priority 2004, dated 2016).

Columns and labels:
Assay type in all cases: cell-based, human
26S proteasome = assay: Chymotrypsin activity of the 26S proteasome (fluorometric); details: rotenone 30 nM; morphine 5 μM; control 236±4.8
Description: (§1) Proteasome function assays were performed in an effort to examine the modulation in levels of protein degradation. Fluorometric assays were performed for both the chymotrypsin activity of the 26S proteasome as well as activity of the whole 20S proteasome using procedures adapted from Kotamraju et al. (Proc. Natl. Acad. Sci. USA, 100:10653-8 (2003)). Excitation at 365 nm and emission at 460 nM of the fluorogenic compound, […] (AMC), were measured using a Spectrofluoroscence Detector (McPherson).

[1] = tested on: 20S Proteasome X (β5) Subunit; assay: 20S proteasome X subunit protein (Western blot); details: rotenone
Description: (§2) To determine protein concentrations, protein was harvested using the following buffer: 20 mM Hepes (Sigma), 100 mM NaCl (Fisher), 10 mM NaF (Sigma), 1% Triton X-100 (Sigma), 1 mM sodium orthovanadate (Sigma), 10 mM EDTA (Sigma), pH 7.4, 0.1% protease inhibitor cocktail (Sigma), and ddH2O. Homogenized samples were spun in an ultracentrifuge at 10,000G for 20 minutes at 4° C. Concentration was determined via the Bradford assay (Bio-Rad) using bovine serum albumin (BSA, Sigma) for standard curve. To eliminate any potential pipetting error, samples and standards were read in triplicate.
(§3) Western blotting was performed as follows. SDS-polyacrylamide gels (12% for separation and 5% for stacking) were made using the Mini Trans-Blot Cell (Bio-Rad). Based on the concentrations from the protein concentration determination assay, the proteins were mixed with 2× Protein Loading Buffer (0.2M DTT) for a final volume of 24 μL. Tris-Glycine Electrophoresis Buffer (1×) was used in SDS-PAGE, and proteins were separated at constant amperage (35 mA).
(§4) Subsequent protein transfer to a nitrocellulose membrane involved use of the Mini Trans-Blot Cell apparatus run at constant voltage (100V) for 40 minutes. […]
(§5) Substrate (Pierce) was administered as a means of stimulating chemiluminescence. Blots were developed and subsequently analyzed for relative band intensity using Gel-Pro software (Applied Biosystems).

NMDA NR1 Subunit = assay: NMDA NR1 subunit mRNA expression (RT-PCR)
Description: (§6) Isolation of total RNA was performed via RNA MiniPrep Kit (QIAGEN). Concentration of RNA was determined via GeneQuant II Spectrophotometer (Pharmacia Biotech) by multiplying A260 value with dilution factor and nucleic acid constant (0.04). Agarose gel electrophoresis (1%) was used to check for RNA quality.
(§7) RT and PCR reactions were performed in GeneAmp PCR System 9700 (Applied Biosystems) using reverse transcriptase and Taq DNA Polymerase. Forward and reverse gene specific-primers for various subunits of the 20S proteasome and immunoproteasome were either obtained from the literature or designed through Primer Express Software 2.0 (Applied Biosystems) (Table 4). NMDA receptor subunit primers were also designed (Table 4). NMDA receptor expression was used as a marker of neurodegenerative disease.
(§8) All primers were optimized for annealing temperatures and cycles (Table 5). Gel electrophoresis (2% agarose, 0.01% ethidium bromide) was performed and analyzed using a UV transilluminator (UVP) and GelPro Analyzer Software (Applied Biosystems). Relative band intensity was normalized with β-Actin reference gene.

[2] = tested on: SK-N-SH neuroblastoma cell line
Description: Cell viability was determined via Trypan blue exclusion. An inverted light microscope (Nikon) with a phase-contrast filter was used to observe the cells. Pictures of the cells were taken via a digital camera (Optronix) attached to the microscope ocular. Images were uploaded onto ImagePro Plus Software (Applied Biosystems), where cell viability was calculated based on both the number of cells covering the field and the cells that present as dead from the stain. In addition, ImagePro Plus was used for determining cellular morphology. The area and perimeter were found and used in the formula (4π*Area)/(Perimeter)^2, resulting in a value between 0 (a straight line) and 1 (a perfect circle).

NMDA NR2B Subunit = assay: NMDA NR2B subunit mRNA expression (RT-PCR)
Description: as §6, §7, §8

20S proteasome = assay: Activity of the whole 20S proteasome (fluorometric); details: rotenone 30 nM; morphine 5 μM
Description: as §1

[3] = tested on: Immunoproteasome LMP7 (β5i) Subunit; assay: LMP7 polypeptide expression (Western blot); details: IFNγ
Description: as §2, §3, §4, §5

[4] = tested on: SK-N-SH neuroblastoma cell line; assay: Cellular morphology (Form Factor) of neuroblastoma cells; details: IFNγ treatment; control 0.54±0.02
[5] = tested on: 20S Proteasome LMP7 Subunit (β5i); assay: LMP7 immunoproteasome subunit mRNA expression (RT-PCR); details: IFNγ 20 ng/mL, 24 hours; control 0.29±0.01
Description: as §6, §7, §8

Molecule | activity of the chymotrypsin functional 26S active site (26S proteasome) [pM] | X subunit protein band intensity [1] [AU] | NR1 expression (NMDA NR1 Subunit; rotenone 30 nM (LD50), control 1.57±0.072) [AU] | NR1 expression (NMDA NR1 Subunit; rotenone 40 nM) [AU] | LD50, cellular death of neuroblastoma cells ([2]; human) [nM] | confluency ([2]; rotenone 30 nM, 48-hour incubation) | NR2B expression (NMDA NR2B Subunit; rotenone 30 nM (LD50), control 0.98±0.02) [AU] | NR2B expression (NMDA NR2B Subunit; rotenone 40 nM) [AU] | 20S proteasome activity (20S proteasome) | LMP7 polypeptide expression [3] | Form Factor (FF) [4] | LMP7 mRNA expression [5]
C=C(C)[C@H]1Cc2c(ccc3c2O[C@@H]2COc4cc(OC)c(OC)cc4[C@@H]2C3=O)O1 [Rotenone] | 221 ± 4.8 | 182 | 1.22±0.010 | 1.21±0.028 | 30 | about 45% | 1.22±0.08 | 1.49±0.02 | Significant increase in activity of the 20S proteasome |  |  | 
IFNγ: interferon used to simulate an immune response |  |  |  |  |  |  |  |  |  | caused an increase in LMP7 polypeptide expression | 0.76±0.02 | 0.93±0.06
